# Molecular target: human GPR119 (Homo sapiens (Human), UniProt Q8TDV5)
# Test: AlphaScreen cAMP assay in Min-6/hGPR119 cells (GPR119 activation, intracellular cAMP)
# Assay type: cell-based
# Conditions: MIN6 cells stably transfected with human GPR119; 45 minutes' incubation at RT; AlphaScreen cAMP Assay Kit
# Method in brief: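 MIN6 cells stably expressing human GPR119 plated 10000 cells/well and held 24 h at 37° C. Compounds applied in stimulating buffer, pH 7.4, with 0.5 mM IBMX, 0.1% BSA, 1% DMSO final, for 45 min at RT. Intracellular cAMP read by AlphaScreen.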
# human GPR119, sequence (Q8TDV5 whole entry): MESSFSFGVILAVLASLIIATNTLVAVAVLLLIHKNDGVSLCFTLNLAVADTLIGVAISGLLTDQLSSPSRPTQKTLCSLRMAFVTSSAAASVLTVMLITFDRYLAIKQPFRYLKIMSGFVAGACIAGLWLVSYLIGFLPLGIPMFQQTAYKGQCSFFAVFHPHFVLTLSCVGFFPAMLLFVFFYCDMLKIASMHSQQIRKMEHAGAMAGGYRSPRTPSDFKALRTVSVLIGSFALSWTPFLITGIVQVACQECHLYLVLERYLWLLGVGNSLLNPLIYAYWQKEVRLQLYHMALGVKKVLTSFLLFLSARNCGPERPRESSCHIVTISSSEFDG
row,EC50,SMILES
1,462 nM,"CCC1CC(=O)NN=C1c1ccc2nc(-c3ccc(C(C)C)cc3)oc2c1 (stereo not drawn) [Example 175, 5-ethyl-6-[2-(4-isopropyl-phenyl)-benzoxazol-6-yl]-4,5-dihydro-2H-pyridazin-3-one]"
2,134 nM,"CCC1CC(=O)NN=C1c1ccc2nc(-c3ccc(N4CCOCC4)cc3)oc2c1 (stereo not drawn) [Example 177, 5-ethyl-6-[2-(4-morpholin-4-yl-phenyl)-benzoxazol-6-yl]-4,5-dihydro-2H-pyridazin-3-one]"
3,156 nM,"CCC1CC(=O)NN=C1c1ccc2nc(-c3ccc(OC4CCOC4)cc3)oc2c1 (stereo not drawn) [Example 181, 5-ethyl-6-{2-[4-(tetrahydro-furan-3-yloxy)-phenyl]-benzoxazol-6-yl}-4,5-dihydro-2H-pyridazin-3-one]"
4,79 nM,"CC[C@@H]1CC(=O)NN=C1c1ccc2nc(-c3ccc(OC)cc3)oc2c1 [Example 190, (5R)-5-ethyl-6-[2-(4-methoxyphenyl)-1,3-benzoxazol-6-yl]-2,3,4,5-tetrahydropyridazin-3-one]"
5,41 nM,"CC[C@@H]1CC(=O)NN=C1c1ccc2nc(-c3ccc(N(C)C)cc3)oc2c1 [Example 191, (5R)-6-{2-[4-(dimethylamino)phenyl]-1,3-benzoxazol-6-yl}-5-ethyl-2,3,4,5-tetrahydropyridazin-3-one]"
6,51 nM,"CC[C@@H]1CC(=O)NN=C1c1ccc2nc(-c3ccc(OC4CCOCC4)cc3)oc2c1 [Example 195, (R)-5-ethyl-6-{2-[4-(tetrahydro-pyran-4-yloxy)-phenyl]-benzoxazol-6-yl}-4,5-dihydro-2H-pyridazin-3-one]"
7,39 nM,"CCC[C@H]1C(=O)NN=C(c2ccc3nc(-c4ccccc4)oc3c2)[C@@H]1C [Example 196, (4R,5R)-5-methyl-6-(2-phenyl-1,3-benzoxazol-6-yl)-4-propyl-2,3,4,5-tetrahydropyridazin-3-one]"
8,3030 nM,"CCC1CC(=O)NN=C1c1ccc2nc(-c3cccc(OCCN4CCCC4)c3)oc2c1 (stereo not drawn) [Example 201, 5-ethyl-6-{2-[3-(2-pyrrolidin-1-yl-ethoxy)-phenyl]-benzoxazol-6-yl}-4.5-dihydro-2H-pyridazin-3-one]"
9,133 nM,"CC[C@@H]1CC(=O)NN=C1N1CCc2nc(-c3ccccc3)oc2C1 [Example 202, (5R)-5-ethyl-6-{2-phenyl-4H,5H,6H,7H-pyrido[4.3-d][1.3]oxazol-5-yl}-2,3,4,5-tetrahydropyridazin-3-one]"
10,414 nM,"O=c1ccc(-c2ccc3nc(-c4ccccc4)oc3c2)n[nH]1 [Example 204, 6-(2-phenyl-1,3-benzoxazol-6-yl)-2,3-dihydropyridazin-3-one]"
11,50 nM,"CCC1OC(=O)NN=C1N1CCc2nc(-c3ccccc3)oc2C1 (stereo not drawn) [Example 205, 6-ethyl-5-(2-phenyl-6,7-dihydro-4H-oxazolo[5,4-c]pyridin-5-yl)-3,6-dihydro-[1,3,4]oxadiazin-2-one]"
12,27 nM,"CC[C@H]1OC(=O)NN=C1N1CCc2nc(-c3ccccc3)oc2C1 [Example 206, (R)-6-ethyl-5-(2-phenyl-6,7-dihydro-4H-oxazolo[5,4-c]pyridin-5-yl)-3,6-dihydro-[1.3.4]oxadiazin-2-one]"
13,578 nM,"CC[C@@H]1OC(=O)NN=C1N1CCc2nc(-c3ccccc3)oc2C1 [Example 207, (S)-6-ethyl-5-(2-phenyl-6,7-dihydro-4H-oxazolo[5,4-c]pyridin-5-yl)-3,6-dihydro-[1.3.4]oxadiazin-2-one]"
14,311 nM,"CCC1CC(=O)NN=C1c1ccc2nc(-c3ccc(OCC(C)N4CCCC4)cc3)oc2c1 (stereo not drawn) [Example 209, 5-ethyl-6-{2-[4-(2-pyrrolidin-1-yl-propoxy)-phenyl]-benzoxazol-6-yl}-4,5-dihydro-2H-pyridazin-3-one]"
15,204 nM,"CCC1CC(=O)NN=C1c1ccc2nc(-c3ccc(OC(C)CN4CCOCC4)cc3)oc2c1 (stereo not drawn) [Example 221, 5-ethyl-6-{2-[4-(1-methyl-2-morpholin-4-yl-ethoxy)-phenyl]-benzoxazol-6-yl}-4,5-dihydro-2H-pyridazin-3-one]"

# The remaining lines, values behind:
row,SMILES,EC50
1,"CCC1CC(=O)NN=C1c1ccc2nc(-c3ccc(OC4CCCC4)cc3)oc2c1 (stereo not drawn) [Example 176, 6-[2-(4-cyclopentyloxy-phenyl)-benzoxazol-6-yl]-5-ethyl-4,5-dihydro-2H-pyridazin-3-one]",82 nM
2,"CCC1CC(=O)NN=C1c1ccc2nc(-c3ccc(C(C)OC)cc3)oc2c1 (stereo not drawn) [Example 180, 5-ethyl-6-{2-[4-(1-methoxy-ethyl)-phenyl]-benzoxazol-6-yl}-4,5-dihydro-2H-pyridazin-3-one]",290 nM
3,"CCC[C@H]1C(=O)NN=C(c2ccc3nc(-c4ccco4)oc3c2)[C@@H]1C [Example 188, trans-6-(2-uran-2-yl-benzoxazol-6-yl)-5-methyl-4-propyl-4,5-dihydro-2H-pyridazin-3-one]",83 nM
4,"CC[C@H]1CC(=O)NN=C1c1ccc2nc(-c3ccc(OC(C)C)cc3)oc2c1 [Example 192, (S)-5-ethyl-6-[2-(4-isopropoxy-phenyl)-benzoxazol-6-yl]-4,5-dihydro-2H-pyridazin-3-one]",6060 nM
5,"CC[C@@H]1CC(=O)NN=C1c1ccc2nc(-c3ccc(OC(C)C)cc3)oc2c1 [Example 193, (R)-5-ethyl-6-[2-(4-isopropoxy-phenyl)-benzoxazol-6-yl]-4,5-dihydro-2H-pyridazin-3-one]",30 nM
6,"CC[C@H]1CC(=O)NN=C1c1ccc2nc(-c3ccc(OC4CCOCC4)cc3)oc2c1 [Example 194, (S)-5-ethyl-6-{2-[4-(tetrahydro-pyran-4-yloxy)-phenyl]-benzoxazol-6-yl}-4,5-dihydro-2H-pyridazin-3-one]",333 nM
7,CCC[C@@H]1C(=O)NN=C(c2ccc3nc(-c4ccc(O)cc4)oc3c2)[C@H]1C [Example 203],962 nM
8,"CC[C@H]1C(c2ccc3nc(-c4ccc(OC(C)C)cc4)oc3c2)=NNC(=O)[C@@H]1C [Example 208, (4R,5R)-5-ethyl-4-methyl-6-{2-[4-(propan-2-yloxy)phenyl]-1,3-benzoxazol-6-yl}-2,3,4,5-tetrahydropyridazin-3-one]",88 nM
9,"CCC1CC(=O)NN=C1c1ccc2nc(-c3ccc(OC(C)CN4CCCC4)cc3)oc2c1 (stereo not drawn) [Example 210, 5-ethyl-6-[2-(4-{[1-(pyrrolidin-1-yl)propan-2-yl]oxy}phenyl)-1,3-benzoxazol-6-yl]-2,3,4,5-tetrahydropyridazin-3-one]",590 nM
10,"CCC1CC(=O)NN=C1c1ccc2nc(-c3ccc(OCC(C)O)cc3)oc2c1 (stereo not drawn) [Example 211, 5-ethyl-6-{2-[4-(2-hydroxy-propoxy)-phenyl]-benzoxazol-6-yl}-4,5-dihydro-2H-pyridazin-3-one]",395 nM
11,"CCC1CC(=O)NN=C1c1ccc2nc(-c3ccc(OC4CCCCC4O)cc3)oc2c1 (stereo not drawn) [Example 212, 5-ethyl-6-(2-{4-[(2-hydroxycyclohexyl)oxy]phenyl}-1,3-benzoxazol-6-yl)-2,3,4,5-tetrahydropyridazin-3-one]",108 nM
12,"C=CCOc1ccc(-c2nc3ccc(C4=NNC(=O)CC4CC)cc3o2)cc1 (stereo not drawn) [Example 213, 6-[2-(4-allyloxy-phenyl)-benzoxazol-6-yl]-5-ethyl-4,5-dihydro-2H-pyridazin-3-one]",241 nM
13,"CCC1CC(=O)NN=C1c1ccc2nc(-c3ccc(OCCOC)cc3)oc2c1 (stereo not drawn) [Example 214, 5-ethyl-6-{2-[4-(2-methoxy-ethoxy)-phenyl]-benzoxazol-6-yl}-4,5-dihydro-2H-pyridazin-3-one]",122 nM
14,"CCC1CC(=O)NN=C1c1ccc2nc(-c3ccc(OCCN(CC)C(C)C)cc3)oc2c1 (stereo not drawn) [Example 215, 5-ethyl-6-(2-{4-[2-(ethyl-isopropyl-amino)-ethoxy]-phenyl}-benzoxazol-6-yl)-4,5-dihydro-2H-pyridazin-3-one]",106 nM
15,"CCC1CC(=O)NN=C1c1ccc2nc(-c3cccc(OCCN4CC(C)OC(C)C4)c3)oc2c1 (stereo not drawn) [Example 216, 6-(2-{3-[2-(2,6-dimethyl-morpholin-4-yl)-ethoxy]-phenyl}-benzoxazol-6-yl)-5-ethyl-4,5-dihydro-2H-pyridazin-3-one]",639 nM
16,CCC1CC(=O)NN=C1c1ccc2nc(-c3cccc(OCCN(C)C(C)C)c3)oc2c1 (stereo not drawn) [Example 217],2410 nM
17,CCC1CC(=O)NN=C1c1ccc2nc(-c3cccc(OCCN(CC)C(C)C)c3)oc2c1 (stereo not drawn) [Example 218],840 nM
18,"CCC1CC(=O)NN=C1c1ccc2nc(-c3ccc(OCCN(C)C(C)C)cc3)oc2c1 (stereo not drawn) [Example 219, 5-ethyl-6-(2-{4-[2-(isopropyl-methyl-amino)-ethoxy]-phenyl}-benzoxazol-6-yl)-4,5-dihydro-2H-pyridazin-3-one]",438 nM
19,"CCC1CC(=O)NN=C1c1ccc2nc(-c3ccc(OCCN4CC(C)OC(C)C4)cc3)oc2c1 (stereo not drawn) [Example 220, 6-(2-{4-[2-(2,6-dimethyl-morpholin-4-yl)-ethoxy]-phenyl}-benzoxazol-6-yl)-5-ethyl-4,5-dihydro-2H-pyridazin-3-one]",84 nM
20,"CCC1CC(=O)NN=C1c1ccc2nc(-c3ccc(OCCN(CC)CC)cc3)oc2c1 (stereo not drawn) [Example 222, 6-{2-[4-(2-diethylamino-ethoxy)-phenyl]-benzoxazol-6-yl}-5-ethyl-4,5-dihydro-2H-pyridazin-3-one]",299 nM
21,"CCC[C@@H]1C(=O)NN=C(c2ccc3nc(-c4ccc(OCCN5C[C@@H](C)O[C@@H](C)C5)cc4)oc3c2)[C@H]1C [Example 223, Trans-6-(2-{4-[2-(2S,6R-dimethyl-morphoin-4-yl)-ethoxy]-phenyl}-benzoxazol-6-yl)-5-methyl-4-propyl-4,5-dihydro-2H-pyridazin-3-one]",46 nM
22,CCC1CC(=O)NN=C1c1ccc2nc(-c3ccc(OC[C@@H]4CCCN4C(=O)OC(C)(C)C)cc3)oc2c1 (stereo partly drawn) [Example 226],47 nM
23,CCC1CC(=O)NN=C1c1ccc2nc(-c3ccc(OC[C@H]4CCCN4C(=O)OC(C)(C)C)cc3)oc2c1 (stereo partly drawn) [Example 227],52 nM
24,"CCC1CC(=O)NN=C1c1ccc2nc(-c3ccc(OC(C)(C)CN4CCCC4)cc3)oc2c1 (stereo not drawn) [Example 228, 6-{2-[4-(1,1-dimethyl-2-pyrrolidin-1-yl-ethoxy)-phenyl]-benzoxazol-6-yl}-5-ethyl-4,5-dihydro-2H-pyridazin-3-one]",549 nM

# Source: patent US8772323B2, “Benzoxazole- and tetrahydrobenzoxazole-substituted pyridazinones as GPR119 agonists” (Boehringer Ingelheim International GmbH, priority 2010, dated 2014)
